This is an account of results in patent publication US20130109682A1, “CYCLIC ETHER COMPOUNDS USEFUL AS KINASE INHIBITORS” (NOVARTIS AG, priority 2010, published 2013).

By IC50 is commonly meant the point on the concentration scale where inhibition reaches its midpoint. One may read the EC50 as the concentration that produces a half-maximal response.

Structures are written as SMILES.

The target of one test is T1, hERG (Homo sapiens, UniProt Q12809).
T1 construct: host or cells: crude membrane suspension
T1 sequence (Q12809 whole entry): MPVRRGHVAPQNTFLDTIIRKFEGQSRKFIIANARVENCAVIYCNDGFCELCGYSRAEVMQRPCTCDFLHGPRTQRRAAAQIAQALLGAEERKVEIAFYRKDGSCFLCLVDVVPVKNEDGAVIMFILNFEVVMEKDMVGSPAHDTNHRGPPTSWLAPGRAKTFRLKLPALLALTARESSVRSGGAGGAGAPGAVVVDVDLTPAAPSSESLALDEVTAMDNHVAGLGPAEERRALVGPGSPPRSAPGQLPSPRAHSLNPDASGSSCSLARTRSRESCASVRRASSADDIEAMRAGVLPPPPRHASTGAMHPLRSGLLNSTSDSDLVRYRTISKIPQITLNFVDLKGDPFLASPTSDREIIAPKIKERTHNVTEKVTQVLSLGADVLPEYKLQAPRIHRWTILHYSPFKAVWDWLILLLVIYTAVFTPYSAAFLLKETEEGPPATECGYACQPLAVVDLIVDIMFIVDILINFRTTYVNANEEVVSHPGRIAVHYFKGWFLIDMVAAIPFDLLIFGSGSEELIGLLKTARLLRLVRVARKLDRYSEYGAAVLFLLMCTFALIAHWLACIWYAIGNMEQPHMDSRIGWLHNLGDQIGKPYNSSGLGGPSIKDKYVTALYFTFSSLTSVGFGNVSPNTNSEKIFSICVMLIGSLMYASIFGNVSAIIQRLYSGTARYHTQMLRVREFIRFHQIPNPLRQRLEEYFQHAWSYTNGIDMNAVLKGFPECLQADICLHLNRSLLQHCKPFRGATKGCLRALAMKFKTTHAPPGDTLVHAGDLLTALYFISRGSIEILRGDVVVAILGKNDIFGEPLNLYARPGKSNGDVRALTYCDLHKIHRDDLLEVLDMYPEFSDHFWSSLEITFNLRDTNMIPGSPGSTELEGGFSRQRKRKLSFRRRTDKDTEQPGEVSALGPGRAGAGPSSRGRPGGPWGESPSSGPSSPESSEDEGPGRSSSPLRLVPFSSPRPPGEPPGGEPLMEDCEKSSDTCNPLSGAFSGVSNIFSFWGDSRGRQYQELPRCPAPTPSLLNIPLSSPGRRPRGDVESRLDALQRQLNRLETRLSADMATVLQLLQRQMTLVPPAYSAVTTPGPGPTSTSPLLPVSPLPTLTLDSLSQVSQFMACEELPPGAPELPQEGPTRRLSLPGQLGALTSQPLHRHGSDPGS
The test is described as follows: hERG binding assay ([3H] dofetilide displacement). The conditions noted are these: dofetilide displacement; read-out: HERGdof IC50. As to the method:
Compounds of the invention were pipetted into each well of pre-wet 96-well Millipore GF/C filter plates (#MSFCN6B50): 119 μl assay buffer, 1 μl test compound in 100% DMSO (or 100% DMSO only for total binding), 40 μl [3H] dofetilide (12.5 nM, final concentration 2.5 nM; Novartis radioisotope laboratory, East Hanover, N.J., USA, specific activity 15-45 Ci/mmol); 40 μl crude membrane suspension (ca. 15 μg protein). The final concentration of DMSO during the incubation was 0.5%. Incubations were performed at room temperature for 90 min. Non-specific binding (NSB) was defined as the binding remaining in the presence of 25 μM terfenadine (Sigma T9652). The incubations were terminated by rapid filtration on a Millipore filtration manifold, followed by three washes of 200 μA ice-cold assay buffer. The plates were left to dry overnight before adding 40 μA scintillant (MicroScint-20). The plates were then sealed (Sealing Tape SI, Nunc 236366) and read in a Wallac MicroBeta Trilux beta-counter for 1.5 min per well. Compounds were tested as 9-concentration response curves in duplicate, ranging from 30 μM to 3 nM in 1:3 dilution steps. Dilution curves were prepared in 100% DMSO. The reference compound (terfenadine) was tested as an eight-concentration response curve, ranging from 10 μM to 0.6 nM in 1:4 dilution steps.

The next test addresses GSK3β (Homo sapiens, UniProt P49841). Put plainly: GSK3β ATP depletion assay. Format: biochemical. The settings on record: read-out: GSK3b IC50. The method in brief:
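Human GSK3β (5 nM) preincubated 15 min with 10 μM biotinylated phospho-CREB peptide in pH 7.5 Tris buffer (15 mM MgCl2, 1 mM DTT, 0.1% BSA, 2.5% DMSO). Reaction started with 2 μM ATP and run to about 50% ATP depletion. Remaining ATP measured by KinaseGlo luminescence.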

For another test, the target named is PIM1 (Homo sapiens, UniProt P11309). The test is described as follows: KinaseGlo Pim1 ATP depletion assay. Format: biochemical. The method in brief:
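2.5 nM PIM1 preincubated 15 min with compound and 40 μM BAD peptide in 50 mM HEPES pH 7.5, 5 mM MgCl2, 1 mM DTT, 0.05% BSA, 2.5% DMSO. The reaction was started with 20 μM ATP (final) and run to about 50% ATP depletion. Remaining ATP read by KinaseGlo Plus luminescence to give IC50.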

For the next test, the target named is PIM3 (Homo sapiens, UniProt Q86V86). Put plainly: KinaseGlo Pim3 ATP depletion assay. The format is biochemical. The method in brief:
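Kinase was preincubated 15 min with BAD peptide in HEPES pH 7.5/MgCl2/DTT/BSA before ATP was added. Final concentrations were 40 μM ATP, 100 μM BAD peptide and 2.5% DMSO, with 5 nM enzyme. The reaction ran to ~50% ATP depletion and remaining ATP was read by KinaseGlo Plus luminescence.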
Background: Kinase-Glo measures the ATP left after a reaction by luminescence.

Another test has as its target PIM2 (Homo sapiens, UniProt Q9P1W9). Put plainly: KinaseGlo Pim2 ATP depletion assay. Format: biochemical. The method in brief:
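Luminescent ATP-depletion read-out of PIM2 phosphorylating BAD peptide (RSRHSSYPAGT-OH). Final conditions: 5 nM PIM2, 4 μM ATP, 10 μM peptide, 2.5% DMSO in 50 mM HEPES pH 7.5, 5 mM MgCl2, 1 mM DTT, 0.05% BSA. Enzyme–peptide preincubated 15 min with compound; reaction run to ~50% ATP depletion.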

In test [1] the test system is KMS11 (human myeloma cell line). Put plainly: Cell proliferation assay (CellTiter-Glo), KMS11. Format: cell-based. The conditions noted are these: KMS11-Luc cells. The method in brief:
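KMS11 cells in IMDM with 10% FBS and sodium pyruvate, seeded at 2000 cells/well on assay day. Compound added at 2× to equal volume of cells, incubated 3 days at 37° C. Viability read by CellTiter-Glo luminescence; EC50 derived.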
Background: Cellular ATP, detected with luciferase, serves as a proxy for viable cell number.

Sequence of PIM2 (Q9P1W9 whole entry): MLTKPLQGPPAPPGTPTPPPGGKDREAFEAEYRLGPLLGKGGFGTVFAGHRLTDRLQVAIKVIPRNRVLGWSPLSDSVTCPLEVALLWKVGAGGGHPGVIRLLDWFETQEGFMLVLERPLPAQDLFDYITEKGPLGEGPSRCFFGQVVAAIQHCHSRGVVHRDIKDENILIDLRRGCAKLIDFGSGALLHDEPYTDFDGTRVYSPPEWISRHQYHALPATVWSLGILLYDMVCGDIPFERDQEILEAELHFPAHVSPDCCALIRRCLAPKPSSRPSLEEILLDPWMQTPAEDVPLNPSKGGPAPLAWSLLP
Sequence of PIM1 (P11309 whole entry): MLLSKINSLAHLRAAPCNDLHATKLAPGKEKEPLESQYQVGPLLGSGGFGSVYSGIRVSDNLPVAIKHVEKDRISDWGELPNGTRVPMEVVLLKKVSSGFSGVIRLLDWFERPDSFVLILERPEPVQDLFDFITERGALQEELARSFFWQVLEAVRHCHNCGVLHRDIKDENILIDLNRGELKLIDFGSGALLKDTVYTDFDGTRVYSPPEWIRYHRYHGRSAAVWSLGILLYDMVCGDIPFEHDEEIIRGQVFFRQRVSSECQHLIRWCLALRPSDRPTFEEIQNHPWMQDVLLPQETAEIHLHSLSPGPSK
Sequence of GSK3β (P49841 whole entry, species assumed): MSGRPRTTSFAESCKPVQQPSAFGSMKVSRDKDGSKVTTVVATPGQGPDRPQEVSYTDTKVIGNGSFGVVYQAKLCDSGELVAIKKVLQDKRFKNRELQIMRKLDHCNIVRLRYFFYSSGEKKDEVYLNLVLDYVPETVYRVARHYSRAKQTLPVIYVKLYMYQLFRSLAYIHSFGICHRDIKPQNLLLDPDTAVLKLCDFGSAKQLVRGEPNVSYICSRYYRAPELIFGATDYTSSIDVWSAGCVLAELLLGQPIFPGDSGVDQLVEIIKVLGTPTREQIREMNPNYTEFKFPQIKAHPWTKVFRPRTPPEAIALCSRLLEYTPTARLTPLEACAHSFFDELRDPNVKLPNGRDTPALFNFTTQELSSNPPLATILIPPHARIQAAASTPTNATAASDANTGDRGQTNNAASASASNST

Regarding `C[C@@H]1O[C@H](c2ccncc2NC(=O)c2ccc(F)c(-c3c(F)cccc3F)n2)[C@@H](F)[C@H](O)[C@@]1(C)O` (stereo in doubt) [Example 71, 6-(2,6-difluorophenyl)-5-fluoro-N-(4-((2R,3S,4R,5R,6S)-3-fluoro-4,5-dihydroxy-5,6-dimethyltetrahydro-2H-pyran-2-yl)pyridin-3-yl)picolinamide], the IC50 on hERG is more than 30000 nM; on GSK3β, 1480 nM; at PIM1 it was 1 nM; against PIM3 it was 6 nM; on PIM2 it was 52 nM. A half-maximal effect in test [1] (Homo sapiens, KMS-11) (EC50) was put at 6400 nM.

`CC[C@]1(O)[C@H](C)O[C@H](c2ccncc2NC(=O)c2ccc(F)c(-c3c(F)cccc3F)n2)C[C@@H]1O` (stereo in doubt) [Example 76, 6-(2,6-difluorophenyl)-N-(4-((2S,4S,5R,6S)-5-ethyl-4,5-dihydroxy-6-methyltetrahydro-2H-pyran-2-yl)pyridin-3-yl)-5-fluoropicolinamide]: the IC50 at hERG is more than 30000 nM; on GSK3β it was 100 nM; at PIM1, 1 nM; at PIM3, 1 nM; against PIM2, 2 nM. Besides, the EC50 in test [1] (Homo sapiens, KMS-11) worked out at 200 nM.

As to `C[C@@H]1O[C@H](c2ccncc2NC(=O)c2ccc(F)c(-c3c(F)cccc3F)n2)C[C@H](O)[C@@]1(C)O` (stereo in doubt) [Example 112, 6-(2,6-difluorophenyl)-N-(4-((2S,4S,5R,6S)-4,5-dihydroxy-5,6-dimethyltetrahydro-2H-pyran-2-yl)pyridin-3-yl)-5-fluoropicolinamide], the IC50 was more than 30000 nM on hERG; 163 nM at GSK3β; 1 nM at PIM1; 2 nM on PIM3; 3 nM at PIM2. This compound also returned an EC50 in test [1] (Homo sapiens, KMS-11) of 1200 nM.

For the compound `C[C@H]1C[C@@H](O)C[C@@H](c2ccncc2NC(=O)c2csc(-c3c(F)cccc3F)n2)O1` (stereo in doubt) [Example 127, 2-(2,6-difluorophenyl)-N-(4-((2S,4R,6S)-4-hydroxy-6-methyltetrahydro-2H-pyran-2-yl)pyridin-3-yl)thiazole-4-carboxamide], the half-maximal inhibitory concentration (IC50) at hERG is more than 30000 nM; on GSK3β, 25 nM; against PIM1, 1 nM; against PIM3, 19 nM; against PIM2, 324 nM. In test [1] (Homo sapiens, KMS-11), this compound yielded an EC50 of 9600 nM.

`C[C@H]1C[C@@H](O)C[C@@H](c2ccncc2NC(=O)c2ccc(F)c(-c3c(F)cccc3F)n2)O1` (stereo in doubt) [Example 128, 6-(2,6-difluorophenyl)-5-fluoro-N-(4-((2S,4R,6S)-4-hydroxy-6-methyltetrahydro-2H-pyran-2-yl)pyridin-3-yl)picolinamide]: the half-inhibitory concentration (IC50) is more than 30000 nM at hERG; 276 nM on GSK3β; 1 nM at PIM1; 6 nM at PIM3; 28 nM on PIM2. The compound further displayed a concentration for a half-maximal effect (EC50) in test [1] (Homo sapiens, KMS-11) of 9100 nM.

With `CC[C@]1(O)[C@H](O)C[C@H](c2ccncc2NC(=O)c2nc(-c3c(F)cccc3F)ncc2N)O[C@@H]1C` [Example 16, 5-amino-2-(2,6-difluorophenyl)-N-(4-((2R,4R,5S,6R)-5-ethyl-4,5-dihydroxy-6-methyltetrahydro-2H-pyran-2-yl)pyridin-3-yl)pyrimidine-4-carboxamide], the IC50 on hERG is more than 30000 nM; on GSK3β it was 101 nM; against PIM1, 1 nM; against PIM3 it was 2 nM; on PIM2, 3 nM. The compound also gave a 50% effective concentration (EC50) in test [1] of 1940 nM.

As to `[2H][C@@H]1[C@@H](O)[C@H](O)[C@@H](CC)O[C@@]1([2H])c1ccncc1NC(=O)c1ccc(F)c(-c2c(F)cccc2F)n1` [Example 54, 6-(2,6-difluorophenyl)-N-(4-((2R,4R,5S,6R)-6-ethyl-4,5-dihydroxy-2,3-didueterotetrahydro-2H-pyran-2-yl)pyridin-3-yl)-5-fluoropicolinamide], the IC50 is more than 30000 nM at hERG; 131 nM on GSK3β; 1 nM on PIM1; 2 nM at PIM3; 3 nM at PIM2. For the same compound, the EC50 in test [1] (Homo sapiens, KMS-11) came out at 2100 nM.

Take `O=C(Nc1cnccc1[C@H]1C[C@@H](O)[C@H](O)[C@@H](CCl)O1)c1ccc(F)c(-c2c(F)cccc2F)n1` [Example 56, N-(4-((2R,4R,5S,6S)-6-(chloromethyl)-4,5-dihydroxytetrahydro-2H-pyran-2-yl)pyridin-3-yl)-6-(2,6-difluorophenyl)-5-fluoropicolinamide]: the IC50 was more than 30000 nM at hERG; 73 nM on GSK3β; 1 nM at PIM1; 2 nM against PIM3; 3 nM against PIM2. The EC50 in test [1] (Homo sapiens, KMS-11) worked out at 8300 nM.

Regarding `CC[C@@]1(O)[C@H](O)C[C@H](c2ccncc2NC(=O)c2ccc(F)c(-c3c(F)cccc3F)n2)O[C@@H]1C` [Example 74, 6-(2,6-difluorophenyl)-N-(4-((2R,4R,5R,6R)-5-ethyl-4,5-dihydroxy-6-methyltetrahydro-2H-pyran-2-yl)pyridin-3-yl)-5-fluoropicolinamide], the half-inhibitory concentration (IC50) at hERG is more than 30000 nM; at GSK3β it was 316 nM; against PIM1, 1 nM; against PIM3, 5 nM; against PIM2 it was 11 nM. The compound also showed an EC50 in test [1] (Homo sapiens, KMS-11) of 3600 nM.

Consider `C[C@H]1O[C@@H](c2ccncc2NC(=O)c2cncc(-c3ccccc3)n2)C[C@@H](O)[C@]1(C)O` [Example 85, N-(4-((2R,4R,5S,6R)-4,5-dihydroxy-5,6-dimethyltetrahydro-2H-pyran-2-yl)pyridin-3-yl)-6-phenylpyrazine-2-carboxamide], for which the IC50 at hERG is more than 30000 nM; on GSK3β it was 257 nM; at PIM1, 221 nM; against PIM3, 564 nM; against PIM2 it was 20600 nM. In test [1] (Homo sapiens, KMS-11), this compound returned an EC50 of more than 10000 nM.

In the case of `C[C@@H]1O[C@H](c2ccncc2NC(=O)c2cncc(-c3ccccc3)n2)C[C@H](O)[C@@]1(C)O` [Example 87, N-(4-((2S,4S,5R,6S)-4,5-dihydroxy-5,6-dimethyltetrahydro-2H-pyran-2-yl)pyridin-3-yl)-6-phenylpyrazine-2-carboxamide], the IC50 is more than 30000 nM on hERG; 809 nM on GSK3β; 937 nM against PIM1; 2670 nM against PIM3; more than 25000 nM at PIM2. The compound also gave a half-maximal effective concentration (EC50) in test [1] (Homo sapiens, KMS-11) of more than 10000 nM.

For `CC(C)NC(=O)c1ccc(F)c(-c2ccc(N)c(C(=O)Nc3cnccc3[C@@H]3C[C@@H](O)[C@](C)(O)[C@@H](C)O3)n2)c1F` [Example 98, 3-amino-6-(2,6-difluoro-3-(isopropylcarbamoyl)phenyl)-N-(4-((2S,4R,5S,6R)-4,5-dihydroxy-5,6-dimethyltetrahydro-2H-pyran-2-yl)pyridin-3-yl)picolinamide], the IC50 at hERG is more than 30000 nM; on GSK3β, 916 nM; against PIM1, 2 nM; on PIM3, 3 nM; against PIM2, 2 nM. In test [1] (Homo sapiens, KMS-11), this compound displayed a concentration giving a half-maximal response (EC50) of 500 nM.

As to `CC(C)NC(=O)c1ccc(F)c(-c2ccc(N)c(C(=O)Nc3cnccc3[C@H]3C[C@@H](O)[C@](C)(O)[C@@H](C)O3)n2)c1` [Example 104, 3-amino-N-(4-((2R,4R,5S,6R)-4,5-dihydroxy-5,6-dimethyltetrahydro-2H-pyran-2-yl)pyridin-3-yl)-6-(2-fluoro-5-(isopropylcarbamoyl)phenyl)picolinamide], the IC50 is more than 30000 nM on hERG; 979 nM on GSK3β; 2 nM on PIM1; 2 nM against PIM3; 3 nM against PIM2. For the same compound, the EC50 in test [1] (Homo sapiens, KMS-11) is 2300 nM.
